Laboratory results as given in patent publication US20090130707A1, “Methods of reducing the inhibitory effect of a redox active metal ion on the enzymatic hydrolysis of cellulosic material” (priority 2007, published 2009).
pKi: −log10 of the molar value.

Assays:
[1] = system: Cellulolytic Enzyme Composition #1; experiment: mini-plate-scale AVICEL hydrolysis by Cellulolytic Enzyme Composition #1; assay type: biochemical, Trichoderma reesei
[2] = system: Cellulolytic Enzyme Composition #1; experiment: mini-plate-scale PASC hydrolysis by Cellulolytic Enzyme Composition #1; assay type: biochemical, Trichoderma reesei
Description: Various (biologically common) divalent metal cations with variable ionic radii were tested in 2.8 ml Deep Well Microplates (VWR International, West Chester, Pa., USA) (“mini-plate-scale”) containing 1 ml suspensions of 25 g of AVICEL® per liter in 50 mM sodium acetate pH 5 at 50° C. Cellulolytic Enzyme Composition #1 was added at 0.25 g per liter for each hydrolysis. The mini-plates were sealed at 160° C. for 2 seconds using an ABGENE® ALPS 300™ sealer (ABgene, Rochester, N.Y., USA). The sealed mini-plates were incubated at 50° C. in an INNOVA® 4080 incubator shaker at 150 rpm. Soluble reducing sugars were measured by HPLC as described in Example 30.
In one series of “mini-scale” hydrolysis reactions performed according to the procedure described in Example 30, the effect of 1 mM to 10 mM FeSO4 was evaluated in the hydrolysis of AVICEL® by Cellulolytic Enzyme Composition #1. In a series of “mini-plate-scale” hydrolysis reactions performed according to the procedure described in Example 32, the effect of 1 mM to 10 mM FeSO4 was evaluated in the hydrolysis of PASC by Cellulolytic Enzyme Composition #1, except 2 g of PASC and 0.05 g Cellulolytic Enzyme Composition #1 per liter of 50 mM sodium acetate pH 5 were used.
The above study was extended to a range of concentration of Fe(II) and cellulose. In a series of “mini-plate-scale” hydrolysis reactions performed according to the procedure described in Example 32, except that 0.1 to 10 mM FeSO4, 0.6 to 4 g of PASC and 0.01 g of Cellulolytic Enzyme Composition #1 per liter of 50 mM sodium acetate pH 5 were used.

[3] = system: Cellulolytic Enzyme Composition #1; experiment: mini-scale AVICEL hydrolysis by Cellulolytic Enzyme Composition #1; assay type: biochemical, Trichoderma reesei
Description: FIGS. 19A, 19B, 19C, and 19D show the effective inhibitory concentration range of Fe(II) on the hydrolysis of AVICEL® by Cellulolytic Enzyme Composition #1 (A and B) and on the hydrolysis of PASC by Cellulolytic Enzyme Composition #1 (C and D). The AVICEL® hydrolysis was conducted with […] of AVICEL® and 0.25 g of Cellulolytic Enzyme Composition #1 per liter of 50 mM sodium acetate pH 5 at 50° C. FeSO4 (mM): (∘) 0, (+) 1, (Δ) 3, (⋄) 5, (□) 10. Dixon plot linear regression line: 1/Rate=(0.035±0.003)[Fe(II)]+(0.043±0.015), r^2=0.978. Rate was estimated from the hydrolysis difference (%) at 24 and 6 hours. The PASC hydrolysis was conducted with 2 g of PASC and 50 mg of Cellulolytic Enzyme Composition #1 per liter of 50 mM sodium acetate pH 5 at 50° C. Dixon plot linear regression line: 1/Rate=(0.0042±0.0003)[Fe(II)]+(0.059±0.002), r^2=0.994. Rates were estimated from the hydrolysis difference (%) at 7 hours.
The effect of various salts (FeSO4, FeCl2, NaCl, Na2SO4, MnSO4, MnCl2) was determined in the hydrolysis of PCS by Cellulolytic Enzyme Composition #2. The PCS hydrolysis was performed in duplicate in capped 1.7 ml EPPENDORF® tubes (“mini-scale”) containing 1 ml suspensions of 43.4 g of PCS (dry weight) per liter, 10 mM salts in 50 mM sodium acetate pH 5. Cellulolytic Enzyme Composition #2 was added at 0.25 g per liter. Reactions without the addition of the salt served as controls. The capped tubes were incubated at 50° C. in an INNOVA® 4080 incubator shaker (New Brunswick Scientific Co., Inc., Edison, N.J., USA) at 150 rpm.
In one series of “mini-scale” hydrolysis reactions performed according to the procedure described in Example 30, the effect of 1 mM to 10 mM FeSO4 was evaluated in the hydrolysis of AVICEL® by Cellulolytic Enzyme Composition #1.

[4] = target: T1, Trichoderma reesei Cel7B endoglucanase I (Trichoderma reesei, UniProt P07981); experiment: PASC hydrolysis by Cel7B endoglucanase I; assay type: biochemical; settings: 10 mM FeSO4; 2 g PASC and 40 mg enzyme per liter (FIG. 20C)
T1 construct: made in house; host or cells: Aspergillus oryzae JaL250
T1 sequence (P07981 23-459): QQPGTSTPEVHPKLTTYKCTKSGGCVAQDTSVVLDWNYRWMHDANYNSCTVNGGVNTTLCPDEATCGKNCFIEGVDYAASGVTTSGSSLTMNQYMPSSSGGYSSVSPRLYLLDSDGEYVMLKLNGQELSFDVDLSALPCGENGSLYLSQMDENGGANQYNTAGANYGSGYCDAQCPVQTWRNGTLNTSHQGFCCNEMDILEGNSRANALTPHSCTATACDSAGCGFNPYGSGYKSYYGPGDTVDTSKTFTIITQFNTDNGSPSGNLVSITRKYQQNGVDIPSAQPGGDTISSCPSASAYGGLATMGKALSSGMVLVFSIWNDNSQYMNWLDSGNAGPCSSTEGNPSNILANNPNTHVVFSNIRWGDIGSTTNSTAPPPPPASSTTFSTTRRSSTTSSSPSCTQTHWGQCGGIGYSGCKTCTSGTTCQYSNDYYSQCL

Ferrous sulfate [FeSO4]
Effect on hydrolysis over concentration range ([1]; 0.1 to 10 mM): concentration-dependent inhibition | Type of inhibition (double-reciprocal plots) ([1]; 0.5 to 4 mM FeSO4, 0.6 to 4 g AVICEL per liter): mix-type inhibition | Concentration dependence of inhibition ([2]; 1 mM to 10 mM FeSO4, PASC (FIG. 19C)): increasingly inhibitory | Type of inhibition (double-reciprocal plots) ([2]; 0.1 to 10 mM FeSO4, 0.6 to 4 g PASC, 0.01 g enzyme per liter): mix-type inhibition | pKi ([2]; on PASC, 2 g PASC and 0.05 g enzyme per liter, read-out: Ki (x-intercept of Dixon plot)): ~1.85 | Concentration dependence of inhibition ([3]; 1 mM to 10 mM FeSO4, AVICEL (FIG. 19A)): increasingly inhibitory | pKi ([3]; on AVICEL, 23 g AVICEL and 0.25 g enzyme per liter, read-out: Ki (x-intercept of Dixon plot)): ~2.89 | Effect on enzyme [4]: significantly inhibited
